Laboratory results taken from publication PMC11606874, “Structural and in vitro anticancer properties of the kaempferol–lactoferrin complex” (Food Science & Nutrition, 2024).

Target: T1, lactoferrin (Bos taurus, UniProt P24627)
T1 construct: gene LTF
Assay: intrinsic fluorescence quenching titration (Stern-Volmer and double-logarithmic Ka at […] K), synchronous fluorescence, UV-vis difference spectra
Type: binding
Conditions: read-out: K a (L mol^-1) (converted)

T1 sequence (P24627 20-708): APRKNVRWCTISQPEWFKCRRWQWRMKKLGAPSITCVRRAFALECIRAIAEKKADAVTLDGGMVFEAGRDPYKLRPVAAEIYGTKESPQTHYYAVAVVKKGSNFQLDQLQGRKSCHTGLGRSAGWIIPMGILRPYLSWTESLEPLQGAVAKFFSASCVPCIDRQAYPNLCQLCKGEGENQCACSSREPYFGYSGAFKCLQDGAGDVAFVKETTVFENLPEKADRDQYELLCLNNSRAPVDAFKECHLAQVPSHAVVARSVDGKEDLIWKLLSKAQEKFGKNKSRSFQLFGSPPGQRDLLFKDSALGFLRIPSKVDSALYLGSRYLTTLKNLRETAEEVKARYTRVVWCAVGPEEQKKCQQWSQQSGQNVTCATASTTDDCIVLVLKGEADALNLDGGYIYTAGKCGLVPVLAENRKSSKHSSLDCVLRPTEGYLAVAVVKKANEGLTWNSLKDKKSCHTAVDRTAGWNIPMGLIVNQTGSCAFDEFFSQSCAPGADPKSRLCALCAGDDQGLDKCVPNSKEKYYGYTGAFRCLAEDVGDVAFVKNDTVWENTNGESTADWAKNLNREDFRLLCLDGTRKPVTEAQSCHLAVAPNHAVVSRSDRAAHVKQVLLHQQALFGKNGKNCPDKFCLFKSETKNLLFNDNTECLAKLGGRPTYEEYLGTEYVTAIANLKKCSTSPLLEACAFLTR

Kd: 43.3 µM
SMILES: O=c1c(O)c(-c2ccc(O)cc2)oc2cc(O)cc(O)c12 [KAE, kaempferol]
